According to PMC9202104 (BMC Biology, 2022):

Biological target: T1, ZIKV NS2B-NS3 protein (Zika virus, UniProt Q32ZE1)
T1 construct: fused with the genes encoding NS3 protein (residues 1-185) through a linker (Gly4-Thr-Gly4); His6 (C); made in house; host or cells: E. coli
Assay: ELISA binding to ZIKV NS2B-NS3 protein
Experimental: Briefly, ELISA plates were coated with each protein (1 μg/ml) at 4°C overnight and were then incubated with blocking buffer containing 2% fat-free milk in PBST (0.05% Tween-20) at 37°C for 2 h. The above compounds, or DMSO control, at serial dilutions were added to the plates and incubated at 37°C for 2 h. After three washes using PBST, the plates were incubated at 37°C for 2 h with ZIKV EDIII-specific human mAb ZKA64-LALA (0.5 μg/ml) (for binding to ZIKV full-length E or EDIII protein), or ZIKV NS2B-NS3-specific mouse sera (for binding to NS2B-NS3 protein). After further washes, the plates were incubated with horseradish peroxidase (HRP)-conjugated anti-human IgG-Fab (1:3,000, Abcam, Cambridge, MS, USA) or anti-mouse IgG (1:3,000, Sigma) antibody at 37°C for 1 h. The plates were incubated with substrate TMB (3,3′,5,5′-tetramethylbenzidine) for 1 min, and the reaction was stopped by addition of 1 N H2SO4. Absorbance at 450 nm (A450 values) was measured by an ELISA microplate reader. Percent binding (% binding) to the E, EDIII, or NS2B-NS3 protein was calculated in the presence or absence of serially diluted compounds using the formula ((1-(E/EDIII/NS2B-NS3-compound)/(E/EDIII/NS2B-NS3))×100), based on which EC50 was calculated using the CalcuSyn program.

T1 sequence (Q32ZE1 1499-1683, added parts left off, change not shown): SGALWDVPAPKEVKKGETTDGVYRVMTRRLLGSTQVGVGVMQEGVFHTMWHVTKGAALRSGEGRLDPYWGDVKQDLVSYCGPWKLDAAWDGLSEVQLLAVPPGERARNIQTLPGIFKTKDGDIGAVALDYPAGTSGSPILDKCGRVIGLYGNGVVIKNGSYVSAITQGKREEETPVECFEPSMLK

SMILES: Cc1cc2c(C(C)C)c(O)c(O)c(/C=N/n3c(=O)[nH][nH]c3=O)c2c(O)c1-c1c(C)cc2c(C(C)C)c(O)c(O)c(/C=N/n3c(=O)[nH][nH]c3=O)c2c1O [ST087010]
- EC50: 21.9 µM
